Results taken from EP0647632A1, “NOVEL BENZ[…]” (YAMANOUCHI PHARMACEUTICAL CO. LTD., priority 1992, dated 1994).

Columns and labels:
CCK-B receptor = target: T1, CCK-B receptor (Rattus norvegicus, UniProt P30553); experiment: Binding activity to CCK-B receptor: displacement of [125I]BH.CCK-8 from rat whole brain membrane sample; design: species or system SD rats; settings: rat brain membranes, [125I]BH.CCK-8, 25°C, 120 minutes; read-out: CCK-B Binding IC₅₀
T1 construct: freezed at -80°C for storage as a membrane sample; from tissue; host or cells: SD rat whole brain membrane preparation
T1 sequence (P30553 1-452): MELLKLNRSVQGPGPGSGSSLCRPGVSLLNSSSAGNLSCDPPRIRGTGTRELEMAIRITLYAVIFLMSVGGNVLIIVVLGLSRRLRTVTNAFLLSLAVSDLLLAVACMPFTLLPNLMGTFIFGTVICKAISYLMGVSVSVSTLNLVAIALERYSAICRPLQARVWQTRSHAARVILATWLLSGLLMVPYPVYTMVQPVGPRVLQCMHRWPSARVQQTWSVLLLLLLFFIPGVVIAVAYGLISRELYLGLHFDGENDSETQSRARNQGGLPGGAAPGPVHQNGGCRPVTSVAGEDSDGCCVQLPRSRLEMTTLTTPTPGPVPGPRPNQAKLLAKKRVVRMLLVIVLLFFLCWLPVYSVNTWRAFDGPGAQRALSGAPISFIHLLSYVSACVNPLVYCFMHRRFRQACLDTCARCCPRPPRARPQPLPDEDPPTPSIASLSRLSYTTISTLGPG
Experimental: About 100 conscious SD rats were sacrificed by decapitation, and immediately thereafter the whole brain was extracted. The whole brain was homogenized using a Teflon-glass homogenizer in a 0.32M sucrose aqueous solution in a volume of 10 times the whole brain. The resulting homogenate was centrifuged in a cooled centrifugator at 900 × g for 10 minutes, and the supernatant was further centrifuged at 11,500 × g for 15 minutes. The resulting sediment was suspended in a 0.08% Triton X-100 and a 50 mM Tris-HCl buffering solution (pH 7.4). After allowing the suspension to stand for 30 minutes, the suspension was again centrifuged at 11,500 × g for 15 minutes, and the sediment was washed twice with each of 5 mM and 50 mM Tris-HCl buffers by centrifuging operations. The resulting sediment was suspended in a 50 mM Tris-HCl buffer, and freezed at -80°C for storage as a membrane sample.
After thawing the membrane sample at room temperature, it was diluted with a 10 mM HEPES buffer (130 mM NaCl, 5 mM MgCl₂·1mM EGTA, 0.25 mg/ml bacitracin, pH 6.5) and, after incubating at 25°C for 120 minutes in the presence of [¹²⁵I]BH.CCK-8, B/F separation was performed by suction filtration. The non-specific binding was determined in the presence of 1 µM of CCK-8. The amount of the labelled ligand bonded to the receptor was measured by a γ-counter. A Ki (CCK-B) value was determined from a displacement curve of the test compound by taking the maximum binding amount of the labelled ligand to the receptor as 100%.

[1] = test system: Gastric Acid Secretion Stimulated by Pentagastrin; experiment: Inhibition of pentagastrin-stimulated gastric acid secretion in anesthetized rats with perfused stomach, intravenous administration; format: in vivo, SD species rats; settings: SD rats, urethane anesthesia, pentagastrin 15 µg/kg/hour i.v., test drug intravenous, dose 0.1 µmol/kg
Text: (i) Method of Measurement: A cannula was inserted into a trachea of rats anesthetized with urethane (1.25 g/kg intraperitoneal administration) and abdomen was incised to expose stomach and duodenum. After ligating the cardiac portion, a polyethylene cannula was set in the forestomach portion. Further, a small incision was given to the duodenum, and a polyethylene cannula was inserted from the incised portion to a direction of the stomach inside. In order to fix the cannula, the pylorus portion was ligated. A physiological saline (adjusted to pH 7.0) was perfused from forestomach portion to the pylorus portion at a rate of 3 ml/minute. The gastric acid secretion was measured by continuously titrating the perfusate by means of a pH-stat (AUT-201, produced by Toa Electronics Ltd.). The continuous titration was performed by titrating with a 25 mM sodium hydroxide solution using a titration end point of pH 7.0. The results were determined as a gastric acid analysis at 10 minutes intervals (µEq/10 minutes). Then, pentagastrin was intravenously administered (15 µg/kg/hour). After injection of pentagastrin, the acid secretion was increased, and 60 minutes after the injection, the acid secretion reached to its maximum value and stabilized. Thereafter, a test drug was intravenously administered, and the gastric acid secretion was measured. From the gastric acid secretion amount after the test drug injection, a gastric acid secretion inhibitory ratio was calculated by taking the maximum value after the pentagastrin injection as 100%. In this test, two species of rats, i.e., Wistar species rats and SD species rats, were used as test animals, but the embodiments obtained by using the SD species rats are described below. The compounds of the present invention show from 9 to 89% gastric acid secretion inhibitory effects by the administration at a dose of 0.1 µmol/kg. The embodiments are shown below.

[2] = test system: Gastric Acid Secretion Stimulated by Pentagastrin; experiment: Inhibition of pentagastrin-stimulated gastric acid secretion in Heidenhain pouch dogs, oral administration; format: in vivo, beagle dogs; settings: pentagastrin 8 µg/kg/hr infusion, test drug oral
Text: (ii) Method of Measurement: Male beagle dogs (7 to 12 kg) fasted overnight was used and subjected to peritoneotomy under GOF anesthesia. After amputating the corpus ventriculi portion parallel to the curvatura ventriculi major, a metal pouch was retained in the suture-closed epigastric region to prepare Heidenhain pouch dogs. The dogs under healthy conditions after two months from the operation were presented to the experiments. Each of the pouch dogs was used at one week intervals.
Pentagastrin was continuously infused (8 µg/kg/hr) into 3 to 5 Heidenhain pouch dogs fasted for 18 hours, and the gastric juice naturally dropped from the pouch was collected at a 15 minute interval. The acid concentration in the gastric juice was calculated from the amount of a 0.05N NaOH required for titrating up to pH of 7.0 using an automatic titration apparatus (Comtite-7, produced by Hiranuma Sangyo), and the product with the amount of the gastric juice was referred to as an acid secretion amount.
Three hours after commencement of the continuous infusion of pentagastrin, a test drug was orally administered, and an inhibitory ratio to the gastric acid secretion at 15 minute intervals was determined to evaluate the effects of the drug.

Compound	IC50 (CCK-B receptor)	Gastric Acid Secretion Inhibitory Ratio/Dose [1]	Gastric Acid Secretion Inhibitory Ratio/Dose ([2]; dose 10 µmol/kg)	Gastric Acid Secretion Inhibitory Ratio/Dose ([2]; dose 1 µmol/kg)
Cc1ccc(C(=O)CN2C(=O)C(NC(=O)Nc3cccc(N(C)C)c3)N=C(c3ccccc3)c3ccccc32)cc1 (single isomer, unassigned; (+)) [Example 21, (+)-1-[2,3-Dihydro-1-(4'-methylphenacyl)-2-oxo-5-phenyl-1H-1,4-benzodiazepin-3-yl]-3-(3-dimethylaminophenyl)urea]	0.16 nM	74% (0.1 µmol/kg)	90% (10 µmol/kg)	–
Cc1ccccc1C(=O)CN1C(=O)[C@H](NC(=O)Nc2cccc(N(C)C)c2)N=C(c2ccccc2)c2ccccc21 [Example 3, (R)-1-[2,3-dihydro-1-(2'-methylphenacyl)-2-oxo-5-phenyl-1H-1,4-benzodiazepin-3-yl]-3-(3-dimethylaminophenyl)urea]	0.17 nM	63% (0.1 µmol/kg)	57% (10 µmol/kg)	–
Cc1ccc(C(=O)CN2C(=O)C(NC(=O)Nc3cccc(N(C)C)c3)N=C(c3ccccn3)c3ccccc32)cc1 (stereo not drawn) [Example 35, 1-[2,3-dihydro-1-(4'-methylphenacyl)-2-oxo-5-(2-pyridyl)-1H-1,4-benzodiazepin-3-yl]-3-(3-dimethylaminophenyl)urea]	2.14 nM	76% (0.1 µmol/kg)	–	83% (1 µmol/kg)
